Reference: US11229664B2, “Treatment of myelosuppression” (priority 2012, dated 2022)
Values joined by “and” are separate entries in the source; they are usually repeats but may differ in a detail not shown here. Identical values can stand only once.

Key:
neutrophils = assay: Clinical trial, metastatic pancreatic cancer: absolute neutrophil count / neutropenia grade; assay type: in vivo, human; design: Neutrophil count: unit not given here; conditions: for Neutrophil Values / Neutrophil count: individual patients; for Neutrophil Values: ODSH adjunctive to gemcitabine and nab-paclitaxel; for Neutrophil count: randomized stage
Description: Male and non-pregnant, non-lactating, female patients, aged 18 to 75, with histologically confirmed metastatic adenocarcinoma of the pancreas were enrolled in the trial. […] Treatment consisted of a series of 28-day cycles, wherein the last day of one cycle (e.g., day 28, cycle 1) was immediately followed by the first day of the next cycle (e.g., day 1, cycle 2). […] Nab-paclitaxel and gemcitabine therapy was given as described in the prescribing information for Abraxane® and Gemzar®. See also, Von Hoff et al., 2011, J. […] As a substantially non-anticoagulant heparinoid, ODSH can be administered at a dose that is greater than the fully anticoagulant dose of unfractionated heparin, without concern for anticoagulant effect, as shown in the Results below. An initial run-in period was conducted in which ten patients were treated with the gemcitabine, nab-paclitaxel, and ODSH regimen described above. After all ten patients had completed at least one 28-day cycle, the data were reviewed and an open-label randomized study initiated, with two arms (ODSH arm and Control arm). In the ODSH arm, the dosing regimen was the same as in the run-in period (gemcitabine, nab-paclitaxel, and ODSH). In the Control arm, patients were given the same gemcitabine and nab-paclitaxel regimen as in the run-in period, but without ODSH. […] Platelet counts, total white blood cell counts, and absolute neutrophil counts were performed. Grading of thrombocytopenia and/or neutropenia was performed according to the following standards: [table]

platelets = assay: Clinical trials of ODSH adjunctive to induction and consolidation therapy in AML (platelet counts, need for transfusion); assay type: in vivo, human
Protocol: A clinical trial is conducted to confirm the therapeutic advantage of ODSH administered adjunctively to induction and consolidation therapy and subsequent allogeneic or autologous bone marrow transplantation in the treatment of acute myelogenous leukemia (AML). Subjects included in the trial are subjects diagnosed with AML who are undergoing induction and consolidation therapy. Subjects are randomly assigned to either a control group (receiving only induction and consolidation therapy) or a treatment group (receiving adjunctive administration of ODSH). ODSH is administered as a continuous infusion (0.375 mg/kg/hr). Subjects in each arm of the trial are evaluated for platelet counts and the need for platelet transfusion. Further metrics evaluated include measurement of circulating levels of PF4 and rate of granulocyte recovery.
A second clinical trial is conducted to confirm the advantage of ODSH administered adjunctively to induction and consolidation chemotherapy in the treatment of AML. The trial is an open-label pilot study often patients newly diagnosed with AML and not previously treated for AML. Patient treatment regimens are as follows. […] Subjects are evaluated for the degree and duration of thrombocytopenia, based on platelet counts and need for transfusion.

anti-thrombin III = anti-thrombin III (Homo sapiens, UniProt P01008); conditions: cited from earlier work
anti-thrombin III, sequence (P01008 33-464, species assumed): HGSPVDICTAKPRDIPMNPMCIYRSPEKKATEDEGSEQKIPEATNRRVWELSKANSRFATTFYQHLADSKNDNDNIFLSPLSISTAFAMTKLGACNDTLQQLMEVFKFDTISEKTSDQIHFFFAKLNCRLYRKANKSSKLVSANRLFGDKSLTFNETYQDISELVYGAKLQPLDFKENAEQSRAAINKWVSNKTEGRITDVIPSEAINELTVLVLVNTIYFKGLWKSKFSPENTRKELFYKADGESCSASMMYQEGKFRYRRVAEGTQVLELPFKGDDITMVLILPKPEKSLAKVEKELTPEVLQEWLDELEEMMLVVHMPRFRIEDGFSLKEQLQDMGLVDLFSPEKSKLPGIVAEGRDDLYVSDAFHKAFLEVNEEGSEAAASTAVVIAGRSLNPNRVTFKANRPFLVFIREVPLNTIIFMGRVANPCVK

[1] = ODSH adjunct to gemcitabine/nab-paclitaxel

Substance: substantially 2-O, 3-O desulfated heparin [ODSH]
- Patients with increased or unchanged neutrophil counts on first day of second cycle vs first day of first cycle (neutrophils; [1]): Five out of 10
- Patients with normal neutrophil counts at the start of the fourth cycle (neutrophils; [1]): 10 out of 10
- Patients with normal neutrophil counts at the start of the third cycle (neutrophils; [1]): 8 out of 9
- Patients with normal neutrophil counts on the first day of the second treatment cycle (neutrophils; [1]): Eight out of 10
- Mean and median absolute neutrophil counts on the first day of treatment cycles 2 and 3 (neutrophils; all samples (FIG. 10B), ODSH adjunct to gemcitabine/nab-paclitaxel): above 2,000
- Patients with no more than mild neutropenia after two doses of treatment (neutrophils; day 15, first cycle, ODSH adjunct to gemcitabine/nab-paclitaxel): 44%
- Patients with no more than mild neutropenia after five or eight doses of treatment (neutrophils; day 15 of cycle 2 or day 15 of cycle 3, ODSH adjunct to gemcitabine/nab-paclitaxel): 7 out of 10
- Neutrophil Values (neutrophils; Cycle 1 Day 1 (before treatment)): 4.3 ×10^3/μl blood (2×) and 3.6 ×10^3/μl blood (2×) and 5.5 ×10^3/μl blood and 2.1 ×10^3/μl blood and 3.3 ×10^3/μl blood
- Neutrophil Values (neutrophils; Cycle 1 Day 8): 1.3 ×10^3/μl blood and 2.1 ×10^3/μl blood and 4.3 ×10^3/μl blood and 0.5 ×10^3/μl blood and 3.0 ×10^3/μl blood and 1.5 ×10^3/μl blood
- Neutrophil Values (neutrophils; Cycle 1 Day 15): 0.7 ×10^3/μl blood (2×) and 1.6 ×10^3/μl blood and 3.6 ×10^3/μl blood and 3.5 ×10^3/μl blood and 1.0 ×10^3/μl blood
- Neutrophil Values (neutrophils; Cycle 2 Day 1): 7.3 ×10^3/μl blood and 1.6 ×10^3/μl blood and 4.6 ×10^3/μl blood and 13.0 ×10^3/μl blood and 2.1 ×10^3/μl blood and 6.0 ×10^3/μl blood and 3.6 ×10^3/μl blood
- Neutrophil Values (neutrophils; Cycle 2 Day 8): 3.8 ×10^3/μl blood and 2.6 ×10^3/μl blood and 3.7 ×10^3/μl blood (2×) and 6.3 ×10^3/μl blood and 1.3 ×10^3/μl blood and 1.9 ×10^3/μl blood
- Neutrophil Values (neutrophils; Cycle 2 Day 15): 1.8 ×10^3/μl blood and 1.7 ×10^3/μl blood and 3.8 ×10^3/μl blood and 0.7 ×10^3/μl blood and 1.5 ×10^3/μl blood and 1.1 ×10^3/μl blood and 1.0 ×10^3/μl blood
- Neutrophil Values (neutrophils; Cycle 3 Day 1): 2.7 ×10^3/μl blood and 2.8 ×10^3/μl blood and 2.2 ×10^3/μl blood and 3.9 ×10^3/μl blood and 1.8 ×10^3/μl blood and 3.2 ×10^3/μl blood
- Neutrophil Values (neutrophils; Cycle 3 Day 8): 1.6 ×10^3/μl blood and 4.2 ×10^3/μl blood and 6.8 ×10^3/μl blood and 3.9 ×10^3/μl blood and 1.4 ×10^3/μl blood (2×)
- Neutrophil Values (neutrophils; Cycle 3 Day 15): 1.5 ×10^3/μl blood (2×) and 1.8 ×10^3/μl blood and 4.5 ×10^3/μl blood and 1.4 ×10^3/μl blood and 0.8 ×10^3/μl blood and 2.6 ×10^3/μl blood
- Neutrophil Values (neutrophils; Cycle 4 Day 1): 2.2 ×10^3/μl blood and 5.2 ×10^3/μl blood and 5.7 ×10^3/μl blood and 5.9 ×10^3/μl blood and 3.5 ×10^3/μl blood and 3.2 ×10^3/μl blood and 2.7 ×10^3/μl blood
- Neutrophil Values (neutrophils; Cycle 4 Day 8): 2.5 ×10^3/μl blood and 2.7 ×10^3/μl blood and 2.2 ×10^3/μl blood and 2.0 ×10^3/μl blood and 1.4 ×10^3/μl blood
- Neutrophil Values (neutrophils; Cycle 4 Day 15): 4.6 ×10^3/μl blood and 2.4 ×10^3/μl blood and 3.4 ×10^3/μl blood and 0.7 ×10^3/μl blood and 1.7 ×10^3/μl blood
- Neutrophil Values (neutrophils; Cycle 5 Day 1): 1.6 ×10^3/μl blood and 3.2 ×10^3/μl blood and 3.3 ×10^3/μl blood and 23.2 ×10^3/μl blood
- Neutrophil Values (neutrophils; Cycle 5 Day 8): 2.1 ×10^3/μl blood and 3.4 ×10^3/μl blood and 1.6 ×10^3/μl blood and 4.1 ×10^3/μl blood
- Neutrophil Values (neutrophils; Cycle 5 Day 15): 0.8 ×10^3/μl blood and 3.9 ×10^3/μl blood and 1.1 ×10^3/μl blood
- Neutrophil Values (neutrophils; Cycle 6 Day 1): 13.5 ×10^3/μl blood and 2.3 ×10^3/μl blood
- Neutrophil Values (neutrophils; Cycle 6 Day 8): 1.3 ×10^3/μl blood and 1.2 ×10^3/μl blood
- Neutrophil Values (neutrophils; Cycle 6 Day 15): 1.7 ×10^3/μl blood and 10.7 ×10^3/μl blood
- Neutrophil Values (neutrophils; Screen): 5.6 ×10^3/μl blood and 5.9 ×10^3/μl blood and 4.0 ×10^3/μl blood (2×) and 5.3 ×10^3/μl blood and 4.3 ×10^3/μl blood and 9.3 ×10^3/μl blood
- Neutrophil count (neutrophils; Cycle 1 Day 15): 2.4 and 1.4 and 4.0 (2×) and 0.8 and 4.7 and 3.0 and 0.3
- Neutrophil count (neutrophils; Cycle 2 Day 15): 1.8 (2×) and 1.6 and 0.8 and 3.7 (2×)
- Neutrophil count (neutrophils; Cycle 3 Day 15): 1.0 and 1.6 and 0.8 and 5.4
- Neutrophil count (neutrophils; Cycle 4 Day 15): 4.8 and 4.1
- Thrombocytopenia in AML patients on induction and consolidation chemotherapy (second trial) (platelets; ODSH 4 mg/kg bolus then 0.25 mg/kg/hr, cytarabine + idarubicin): attenuates thrombocytopenia
- Thrombocytopenia in AML patients on induction and consolidation therapy (first trial) (platelets; ODSH continuous infusion 0.375 mg/kg/hr, adjunctive): attenuates thrombocytopenia
- Kd, affinity for anti-thrombin III (anti-thrombin III): ~4000 µg/mL
- Kd (anti-thrombin III; read-out: Kd, affinity for anti-thrombin III): ~339 µM
